Where a SMILES comes first, the peptide text is derived from it.
Test system: peptide-specific T cell cultures
Assay: T cell phenotyping and intracellular cytokine staining (IFN-gamma, TNF-alpha)
Format: cell-based, human
Parameters: key: +: cytokine: Immunogenicity of the peptide shown by intracellular cytokine staining (IFN-gamma, TNF-alpha); +*: *highlights data from published resources.; *highlights data from published resources
Conditions: HLA restriction B15
Procedure: To characterize and quantify the responsive cells upon peptide stimulation, the peptide-specific T cell cultures with positive ELISpot results were further analyzed with T cell phenotyping and intracellular cytokine staining (ICS) assessed by flow cytometry.
The cells of the respective continued short-term T cell culture as well as the DMSO-stimulated and an unresponsive T cell line were harvested into 2 mL reaction tubes and centrifuged at 400×g for 10 min. The supernatant was discarded and the pellet of the unresponsive T cell line was resuspended in 100 μL ELISpot medium and used as unstimulated and unstained control. The pellets of the responsive and the DMSO-stimulated T cell lines were resuspended in 200 μL ELISpot medium and split equally into two wells of a V-bottom 96-well plate. One well of the responsive T cell lines was re-stimulated with 10 μg/mL of its specific peptide while the other well was mock stimulated with 0.1% (v/v) DMSO. As positive control, one well of the DMSO-stimulated T cell line was activated by treatment with 20 ng/ml Phorbol 12-myristate 13-acetate and 1 μM lonomycin. Then, 1:10 diluted GolgiStop (containing monensin) and 1:15 diluted GolgiPlug (containing brefeldin A) were added to all wells to inhibit intracellular transport processes. Monensin inhibits the trans-Golgi transport, while brefeldin A inhibits transport between the ER and the Golgi (Chardin and McCormick, 1999; Mollenhauer et al., 1990). The stimulated cells were incubated for 5 h at standard culture conditions.
After incubation, the cells were resuspended, centrifuged at 400×g for 5 min and the supernatant was discarded. Then, the cells were resuspended in 50 μL cold staining buffer (unstained) or 50 μL cold staining buffer containing the phenotyping antibodies against CD3, CD4, CD8 and the LIVE/DEAD™ Fixable Near-IR Dead Cell Stain (unstimulated and stimulated) and incubated at 4° C. for 30 min. After the surface staining, the cells were washed twice with 200 μL staining buffer and centrifugation at 1400 rpm, followed by fixation with 1% paraformaldehyde (PFA) solution for 15 min at 4° C. All following centrifugation steps were carried out at 1400 rpm for 5 min. After fixation, the cells were again washed twice with 200 μL cold staining buffer and were then resuspended in 100 μL 1× perm/wash buffer diluted in PBS (provided is 10×) for 15 min at 4° C. for cell membrane permeabilization. Subsequently, the plate was centrifuged and the supernatant was discarded. The cells were resuspended in 50 μL perm/wash buffer diluted in PBS (unstained) or 50 μL perm/wash buffer containing the intracellular cytokine antibodies against IFNγ, TNFα and granzyme B (unstimulated and stimulated) for 30 min at 4° C. After intracellular cytokine staining, the cells were washed twice with 200 μL 1× perm/wash buffer. Then 100 μL fix/perm solution (provided in the BD Cytofix/Cytoperm kit) were added per well. After 20 min of incubation at 4° C., the cells of each well were washed twice with 200 μL 1× perm/wash buffer before being resuspended in 100 μL staining buffer and stored at 4° C. overnight.
OneComp eBeads™ (eBeads) and ArC™ Amine Reactive Compensation beads (ArC beads) were stained as compensation controls. For each antibody, 50 μL of the eBeads suspension were stained with the same dilution as used for staining the cells. The ArC beads were stained with 1 μL LIVE/DEAD™ Fixable Near-IR Dead Cell Stain stock solution in 50 μL staining buffer. The beads were incubated at 4° C. for 30 min and were then washed two times with 1 mL staining buffer and centrifugation at 400×g. Finally, the stained beads were resuspended in 400 μL staining buffer, one drop of ArC™ negative beads was added to the labelled ArC beads, and all beads were stored at 4° C. overnight.
On the next day, the samples and the single stained compensation controls were acquired at a BD FACS Canto™ II analyzer using the BD FACS Diva Software Version 6. […]

Molecule | cytokine: Immunogenicity of the peptide shown by intracellular cytokine staining (IFN-gamma, TNF-alpha)
115 (FAFRDLCIVY; Human papillomavirus 16) [compound 115] | +

Test system: short-term antigen-specific T cell lines generated from PBMCs
Assay: Interferon-γ ELISpot assay on short-term antigen-specific T cell lines
Format: cell-based, human
Conditions: HLA restriction A24

Molecule | ELISpot: Immungenicity of the peptide shown by IFN-gamma ELISPOT analysis
83 (TFCCKCDSTL; Human papillomavirus 16) [compound 83] | +

Same assay, conditions: HLA restriction B15

Molecule | ELISpot: Immungenicity of the peptide shown by IFN-gamma ELISPOT analysis
115 (FAFRDLCIVY; Human papillomavirus 16) [compound 115] | +

Test system: HPV16-positive cells
Assay: Cytotoxicity assay (VITAL FR / live-cell imaging-based) with peptide-specific CD8+ T cells
Parameters: species or system human; key: +: cytotox: Ability of peptide-specific T cells to kill HPV16-positive cells.; +*: *highlights data from published resources.; *highlights data from published resources
Conditions: HLA restriction A02
Procedure: The flow cytometry based VITAL FR cytotoxicity assay was used as published by Stanke et al. (Stanke et al., 2010) to assess whether peptide-specific T cells are able to specifically kill HPV-transformed target cells. Briefly, two HLA-A2+ cell lines, a HPV16-negative (HPV16−) control cell line (C33A) and a HPV16-positive (HPV16+) target cell line (CaSki) were fluorescently labeled with either FarRed or CFSE and were co-incubated with peptide-specific CD8+ T cells as effector cells. After 48 h co-incubation, the fluorescently labeled cells were analyzed by flow cytometry to determine the surviving cells and calculate the specific cytolytic function of the effector cells by the ratio of target and control cells.
CaSki and C33A cells were fluorescently labeled with CFSE and FarRed, respectively. Cells of both cell lines were harvested and resuspended in plain RPMI medium at a concentration of 1×10^6 cells/mL. For cell labeling, 5 μM CSFE were added to CaSki cells and 0.25 μM FarRed were added to C33A cells. The cells were incubated at 37° C. and the reaction was stopped after 10 min by addition of 50 mL RPMI with 10% FBS. The cells were centrifuged at 300×g for 5 min, the supernatant was discarded and the cells were resuspended in their cell culture medium. The labeled cells were seeded in T25 cell culture flasks with 1-2×10^6 cells/flask.
On the next day, the labeled CaSki and C33A as well as the epitope-specific semi-long-term T cell lines (described in 1.6) were harvested. CD8+ T cells were isolated from the epitope-specific semi-long-term T cell lines using the MACS CD8+ T cell isolation kit (Miltenyi Biotec) according to the manufacturer's protocol for LS columns. The CD8+ T cells were resuspended in T cell medium and added to wells of a F-bottom 96-well plate in serial dilutions to achieve triplicates of 6×10^4, 3×10^4, 1.5×10^4, 0.75×10^4 and 0.375×10^4 cells per well. The CaSki and C33A cells were mixed 1:1 in T cell medium and 3×10^3 cells were added to each well containing T cells. Thereby effector:target (E:T) ratios of […] were achieved. Additionally, triplicates of mixed target cells without T cells were seeded, which is referred to as E:T 0. After 48 h incubation at 37° C., 5% C02, the cells were harvested and analyzed at a BD FACS Canto™ II analyzer using the BD FACS Diva Software Version 6. The obtained data were analyzed with the FlowJo software Version 10 by applying the same gating strategy to all samples. Subsequently, the equations (1) and (2) given below were applied in Excel (Microsoft Office 2016) to calculate specific killing.
Semi long-term T cell lines were set up to obtain high numbers of T cells, which are required for the analysis of epitope specific cytotoxic T cell responses in VITAL FR cytotoxicity assays. Autologous DCs were generated from PBMCs as described in 1.7 and loaded with the desired HPV16 peptide. PBMCs of the same donor were thawed and resuspended in T cell medium supplemented with rhIL-7 (10 ng/mL) and rhIL-15 (20 ng/mL). 1×10^7 PBMCs/well were seeded to a 24-well plate in a total volume of 1 mL/well. Peptide-loaded DCs were added in a ratio of 50:1 (PBMCs:DCs) in 1 mL rhIL-7 (10 ng/mL) and rhIL-15 (20 ng/mL) supplemented T cell medium to achieve a final volume of 2 mL. The cell cultures were fed with rhIL-2 (final concentration: 40 U/mL) every other day. If the medium turned yellow the feeding was combined with a half medium change with 1 mL fresh IL-2 supplemented T cell medium. After eight days, the peptide stimulation with peptide-loaded DCs was repeated and cultivation was continued. On day 15, the T cell lines were harvested and used for CD8+ T cell isolation and cytotoxicity assays.
In addition to the VITAL FR assay described herein above, a newly established live-cell imaging-based cytotoxicity assay was applied. […]

Molecule | cytotox: Ability of peptide-specific T cells to kill HPV16-positive cells
CC[C@H](C)[C@H](NC(=O)CNC(=O)[C@H](CC(C)C)NC(=O)[C@@H](NC(=O)CNC(=O)[C@H](CCSC)NC(=O)[C@H](CC(C)C)NC(=O)[C@H](CC(C)C)NC(=O)[C@H](CC(=O)O)NC(=O)[C@@H](N)CCC(=O)O)[C@@H](C)O)C(=O)N[C@H](C(=O)O)C(C)C [compound 21] (H-EDLLMGTLGIV-OH) | +
CSCC[C@H](NC(=O)[C@@H](N)Cc1ccc(O)cc1)C(=O)N[C@@H](CC(C)C)C(=O)N[C@@H](CC(=O)O)C(=O)N[C@@H](CC(C)C)C(=O)N[C@@H](CCC(N)=O)C(=O)N1CCC[C@H]1C(=O)N[C@@H](CCC(=O)O)C(=O)N[C@H](C(=O)N[C@H](C(=O)N[C@@H](CC(=O)O)C(=O)O)[C@@H](C)O)[C@@H](C)O [compound 15] | +
CC[C@H](C)[C@H](NC(=O)[C@@H]1CCCN1C(=O)[C@H](CS)NC(=O)[C@@H](NC(=O)[C@@H](NC(=O)CNC(=O)[C@H](CC(C)C)NC(=O)[C@@H](NC(=O)CNC(=O)[C@@H](N)CCSC)[C@@H](C)O)[C@@H](C)CC)C(C)C)C(=O)O [compound 33] (H-MGTLGIVCPI-OH) | +
CC[C@H](C)[C@H](N)C(=O)N[C@@H](CCCNC(=N)N)C(=O)N[C@H](C(=O)N[C@@H](CC(C)C)C(=O)N[C@@H](CCC(=O)O)C(=O)N[C@@H](CC(=O)O)C(=O)N[C@@H](CC(C)C)C(=O)N[C@@H](CC(C)C)C(=O)N[C@@H](CCSC)C(=O)NCC(=O)N[C@H](C(=O)O)[C@@H](C)O)[C@@H](C)O [compound 52] (H-IRTLEDLLMGT-OH) | +
CSCC[C@H](N)C(=O)N[C@@H](CC(C)C)C(=O)N[C@@H](CC(=O)O)C(=O)N[C@@H](CC(C)C)C(=O)N[C@@H](CCC(N)=O)C(=O)N1CCC[C@H]1C(=O)N[C@@H](CCC(=O)O)C(=O)N[C@H](C(=O)O)[C@@H](C)O [compound 16] (H-MLDLQPET-OH) | +
CSCC[C@H](NC(=O)[C@H](CC(C)C)NC(=O)[C@H](CC(C)C)NC(=O)[C@H](CC(=O)O)NC(=O)[C@H](CCC(=O)O)NC(=O)[C@H](CC(C)C)NC(=O)[C@@H](NC(=O)[C@@H](N)CCCNC(=N)N)[C@@H](C)O)C(=O)NCC(=O)N[C@H](C(=O)N[C@@H](CC(C)C)C(=O)O)[C@@H](C)O [compound 19] (H-RTLEDLLMGTL-OH) | +
CC[C@H](C)[C@H](NC(=O)CNC(=O)[C@H](CC(C)C)NC(=O)[C@@H](NC(=O)CNC(=O)[C@H](CCSC)NC(=O)[C@H](CC(C)C)NC(=O)[C@@H](N)CC(C)C)[C@@H](C)O)C(=O)N[C@H](C(=O)N[C@@H](CS)C(=O)N1CCC[C@H]1C(=O)O)C(C)C [compound 44] (H-LLMGTLGIVCP-OH) | +
CC(C)C[C@H](NC(=O)[C@@H](N)CCCNC(=N)N)C(=O)N[C@@H](CS)C(=O)N[C@H](C(=O)N[C@@H](CCC(N)=O)C(=O)N[C@@H](CO)C(=O)N[C@H](C(=O)N[C@@H](Cc1c[nH]cn1)C(=O)N[C@H](C(=O)O)C(C)C)[C@@H](C)O)C(C)C [compound 17] (H-RLCVQSTHV-OH) | +
CSCC[C@H](NC(=O)[C@@H](N)Cc1ccc(O)cc1)C(=O)N[C@@H](CC(C)C)C(=O)N[C@@H](CC(=O)O)C(=O)N[C@@H](CC(C)C)C(=O)N[C@@H](CCC(N)=O)C(=O)N1CCC[C@H]1C(=O)N[C@@H](CCC(=O)O)C(=O)O [compound 32] (H-YMLDLQPE-OH) | +
CC[C@H](C)[C@H](NC(=O)[C@@H]1CCCN1C(=O)[C@H](CS)NC(=O)[C@@H](NC(=O)[C@@H](NC(=O)CNC(=O)[C@H](CC(C)C)NC(=O)[C@@H](NC(=O)CNC(=O)[C@H](CCSC)NC(=O)[C@@H](N)CC(C)C)[C@@H](C)O)[C@@H](C)CC)C(C)C)C(=O)O [compound 25] (H-LMGTLGIVCPI-OH) | +
CC[C@H](C)[C@H](NC(=O)[C@H](CC(=O)O)NC(=O)[C@H](Cc1c[nH]cn1)NC(=O)[C@@H](NC(=O)[C@@H](NC(=O)[C@@H](N)[C@@H](C)O)[C@@H](C)O)[C@@H](C)CC)C(=O)N[C@H](C(=O)N[C@@H](CC(C)C)C(=O)N[C@@H](CCC(=O)O)C(=O)N[C@@H](CS)C(=O)N[C@H](C(=O)O)C(C)C)[C@@H](C)CC [compound 49] (H-TTIHDIILECV-OH) | +

Same assay, conditions: HLA restriction A24

Molecule | cytotox: Ability of peptide-specific T cells to kill HPV16-positive cells
83 (TFCCKCDSTL; Human papillomavirus 16) [compound 83] | +

— US20260240976A1, “T[…] VACCINES BASED ON VALIDATED TARGET EPITOPES” (Deutsches Krebsforschungszentrum Stiftung des öffentlichen …, priority 2023, published 2026)
